Experimental data reported in ChEMBL document CHEMBL1153365, “Identification of potent pyrimidine inhibitors of phosphodiesterase 7 (PDE7) and their ability to inhibit T cell proliferation” (Bioorg Med Chem Lett, 2009).
≈ marks a conversion by molar mass, not a printed value.

What was measured:
[1] = Inhibition of PDE7
[2] = Inhibition of PDE1
[3] = Inhibition of PDE3
[4] = Inhibition of PDE4
[5] = target: cGMP-specific 3',5'-cyclic phosphodiesterase (Homo sapiens, UniProt O76074); experiment: Inhibition of PDE5
PBMC [6] = experiment: Immunosuppressant activity in PBMC assessed as antiproliferation after 3 days by [3H]thymidine incorporation assay; assay type: functional, cell-based; conditions: Homo sapiens
PBMC [7] = experiment: Immunosuppressant activity in PBMC assessed as cytotoxicity; assay type: functional, cell-based; conditions: Homo sapiens
[8] = Aqueous solubility at pH 6.5; assay type: physicochemical
Splenocyte = experiment: Immunosuppressant activity in wild type splenocyte assessed as antiproliferation; assay type: functional, cell-based; conditions: Mus musculus
[9] = Immunosuppressant activity in PDE7 knockout splenocyte assessed as antiproliferation; assay type: functional, cell-based

SMILES	IC50 [1] [µM]	IC50 [2] [µM]	IC50 [3] [µM]	IC50 [4] [µM]	IC50 [5] [µM]	solubility [8] [µg/mL]	IC50 (PBMC [6]) [µM]	IC50 (PBMC [7]) [µM]	IC50 (Splenocyte) [µM]	IC50 [9] [µM]
CCOC(=O)c1sc(Nc2nc(NC)cc(NCc3ccc(S(N)(=O)=O)cc3)n2)nc1C	0.1	> 10	> 50	0.03	0.065		0.5	> 25		
CCOC(=O)c1sc(Nc2nc(N3CCC(O)CC3)cc(N3CCC(N(C)C)CC3)n2)nc1C	0.076	23	> 50	> 10	> 10	20 (≈ 40.8 µM)	1.5	> 25		
CCOC(=O)c1sc(Nc2nc(N3CCC(N(C)C)CC3)cc(N3CCNC(C(N)=O)C3)n2)nc1C (stereo not given)	0.082	23	> 50	8	6.5	> 20	3.1	> 25		
CCOC(=O)c1sc(Nc2nc(NCc3ccc(OC)c(OC)c3)cc(N3CCNCC3)n2)nc1C	0.031	> 10	8	2.3	0.32	> 20	1.2	12		
CCOC(=O)c1sc(Nc2nc(NCc3ccc(S(N)(=O)=O)cc3)c3c(ncn3CC)n2)nc1C	0.01									
CCOC(=O)c1sc(Nc2nc(N3CCN(C)CC3)cc(N3CCN(CCN(C)C)CC3)n2)nc1C	0.056	27	19	9.4	> 10	> 20	2.2	15		
CCOC(=O)c1sc(Nc2nc(N(C)Cc3cc(OC)c(OC)c(OC)c3)cc(N3CCNCC3)n2)nc1C	0.01	7.9	22	3.2	7.6	> 20	0.45	14		

Continued by falling IC50 [1], values first:

IC50 [1] [µM]	IC50 [2] [µM]	IC50 [3] [µM]	IC50 [4] [µM]	IC50 [5] [µM]	solubility [8] [µg/mL]	SMILES	IC50 (PBMC [6]) [µM]	IC50 (PBMC [7]) [µM]	IC50 (Splenocyte) [µM]	IC50 [9] [µM]
0.22						CCOC(=O)c1sc(Nc2nccc(NCc3ccc(S(N)(=O)=O)cc3)n2)nc1C				
0.13	15	13	9.5	> 10	> 20	CCOC(=O)c1sc(Nc2nc(N3CCOCC3)cc(N3CCC(N(C)C)CC3)n2)nc1C	2	> 25		
0.12	11	> 50	9.3	> 10	> 20	CCOC(=O)c1sc(Nc2nc(N3CCC(N(C)C)CC3)cc(N3CCCC(CO)C3)n2)nc1C (stereo not given)	5	> 25		
0.083	> 50	46	> 10	> 10	> 20	CCOC(=O)c1sc(Nc2nc(N3CCC(N(C)C)CC3)cc(N3CCN(C)CC3)n2)nc1C	2.5	15		
0.063	4.9	20	3.2	0.7	20 (≈ 43.2 µM)	CCOC(=O)c1sc(Nc2nc(N3CCC(O)CC3)cc(N3CCC(O)CC3)n2)nc1C	0.12	> 25	0.21	0.15
0.039	4.1	27	5.1	5.2	> 20	CCOC(=O)c1sc(Nc2nc(N(C)Cc3cc(OC)c(OC)c(OC)c3)cc(N3CCN(C)CC3)n2)nc1C	0.69	> 25		
0.01	4.1	2.8	0.22	0.072	20 (≈ 37.5 µM)	CCOC(=O)c1sc(Nc2nc(NCc3ccc(S(N)(=O)=O)cc3)cc(N3CCNCC3)n2)nc1C	7.2	> 25		
0.006						CCOC(=O)c1sc(Nc2nc(N3CCNCC3)c3c(n2)N(Cc2cc(OC)c(OC)c(OC)c2)CC3)nc1C				
